Test results reported in patent US10858359B2, “Heterocyclic ring derivatives useful as SHP2 inhibitors” (priority 2016, dated 2020).
Where a name gives a salt, the structure may show the parent alone.

Tests used:
SHP2 [1] = target: T1, SHP2 (Homo sapiens (Human), UniProt Q06124); experiment: Phosphatase assay (IC50), DiFMUP substrate; type: biochemical; conditions: SHP2 0.5 nM activated with dPEG8 peptide; DiFMUP 12 μM; compounds 0.3 nM to 1 μM
Method: DMSO [0.5% (v/v)] or compounds (concentrations ranging from 0.3 nM to 1 μM) were added to the mixture and incubated for 30 min at room temperature.

SHP2 [2] = target: T1, SHP2; experiment: Phosphatase assay (single dose inhibition), DiFMUP substrate; type: biochemical; conditions: compound at 0.1 μM (100 nM); SHP2 0.5 nM activated with dPEG8 peptide; DiFMUP 12 μM; relative to DMSO control
Method: DMSO [0.5% (v/v)] or compounds (100 nM) were added to the mixture and incubated for 30 min at room temperature. […] The experiment is carried out in triplicate. The value for the control sample (DMSO) was set to 100%, and the values for the compound-treated samples were expressed as activity relative to the control sample.

KYSE-520 cells = experiment: Cell proliferation assay (MTS/PMS); type: cell-based; conditions: Homo sapiens, 192 h, 1500 cells/well, RPMI-1640 3% FBS, read at day 8
Method: For drug treatment, compounds of the invention at various concentrations were added 24 hours after cell plating. At day 8, 50 μL MTS/PMS reagents (Promega/Sigma) were added, and the absorbance value was determined according to the supplier's instruction (Promega).

T1 sequence (Q06124 whole entry): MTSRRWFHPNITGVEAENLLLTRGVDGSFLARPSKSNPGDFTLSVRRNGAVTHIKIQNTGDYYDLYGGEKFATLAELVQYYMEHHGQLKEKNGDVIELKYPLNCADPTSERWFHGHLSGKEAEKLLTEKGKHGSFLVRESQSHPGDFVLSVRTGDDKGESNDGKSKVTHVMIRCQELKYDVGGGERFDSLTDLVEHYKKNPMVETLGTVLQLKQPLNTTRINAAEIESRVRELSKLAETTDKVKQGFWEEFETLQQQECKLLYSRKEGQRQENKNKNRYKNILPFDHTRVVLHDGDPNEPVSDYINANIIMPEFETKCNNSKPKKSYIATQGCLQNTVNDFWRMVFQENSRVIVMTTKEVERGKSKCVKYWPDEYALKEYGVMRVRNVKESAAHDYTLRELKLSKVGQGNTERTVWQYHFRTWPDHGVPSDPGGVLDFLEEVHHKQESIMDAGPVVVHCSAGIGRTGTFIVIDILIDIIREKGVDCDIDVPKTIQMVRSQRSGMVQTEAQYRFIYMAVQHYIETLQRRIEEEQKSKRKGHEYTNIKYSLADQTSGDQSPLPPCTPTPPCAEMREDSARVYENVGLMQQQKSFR

| Compound | IC50 (SHP2 [1]) [nM] | inhibition at 0.1 µM (SHP2 [2]) [%] | IC50 (KYSE-520 cells) [µM] |
| --- | --- | --- | --- |
| Nc1nc(N2CCC3(CC2)COC[C@H]3N)cnc1Sc1ccnc2c1C(F)(F)C(=O)N2 [Example 10, (S)-4-((3-amino-5-(4-amino-2-oxa-8-azaspiro[4.5]decan-8-yl)pyrazin-2-yl)thio)-3,3-difluoro-1H-pyrrolo[2,3-b]pyridin-2(3H)-one] | 30 | 81 |  |
| CN(C)C(=O)C(=O)Nc1cccc(Sc2ncc(N3CCC4(CC3)COC[C@H]4N)nc2N)c1Cl [Example 1, (S)-N1-(3-((3-amino-5-(4-amino-2-oxa-8-azaspiro[4.5]decan-8-yl)pyrazin-2-yl)thio)-2-chlorophenyl)-N2,N2-dimethyloxalamide hydrochloride] |  |  | 15.9 |
| CN(C)C(=O)C(=O)Nc1cccc(Sc2ncc(N3CCC(C)(CN)CC3)nc2N)c1Cl [Example 20, N^1-(3-((3-amino-5-(4-(aminomethyl)-4-methylpiperidin-1-yl)pyrazin-2-yl)thio)-2-chlorophenyl)-N^2,N^2-dimethyloxalamide] |  | 57 |  |
| CC(=O)n1ccc2c(Sc3ncc(N4CCC5(CC4)COC[C@H]5N)nc3N)cccc21 [Example 43, (S)-1-(4-((3-amino-5-(4-amino-2-oxa-8-azaspiro[4.5]decan-8-yl)pyrazin-2-yl)thio)-1H-indol-1-yl)ethanone] |  | 43 |  |
| CN1C(=O)C(F)(C(F)(F)F)c2c(Sc3ncc(N4CCC5(CC4)COC[C@H]5N)nc3N)cccc21 (stereo partly drawn) [Example 58, 4-((3-amino-5-((S)-4-amino-2-oxa-8-azaspiro[4.5]decan-8-yl)pyrazin-2-yl)thio)-3-fluoro-1-methyl-3-(trifluoromethyl)indolin-2-one] |  | 61 |  |
| CN(C)C(=O)C(=O)c1ccc(C(=O)Nc2cccc(Sc3ncc(N4CCC(C)(N)CC4)nc3N)c2Cl)cc1 [Example 3, N-(3-((3-amino-5-(4-amino-4-methylpiperidin-1-yl)pyrazin-2-yl)thio)-2-chlorophenyl)-4-(2-(dimethylamino)-2-oxoacetyl)benzamide] |  | 60 |  |
| CN1C(=O)C(F)(F)c2c(Sc3ncc(N4CCC5(CC4)COC[C@H]5N[S@+]([O-])C(C)(C)C)nc3N)cccc21 [Example 11, (R)-N-((S)-8-(6-amino-5-((3,3-difluoro-1-methyl-2-oxoindolin-4-yl)thio)pyrazin-2-yl)-2-oxa-8-azaspiro[4.5]decan-4-yl)-2-methylpropane-2-sulfinamide] |  |  | 12 |
| Nc1nc(N2CCC3(CC2)COC[C@H]3N)cnc1Sc1ccnc2[nH]ccc12 [Example 38, (S)-8-(5-((1H-pyrrolo[2,3-b]pyridin-4-yl)thio)-6-aminopyrazin-2-yl)-2-oxa-8-azaspiro[4.5]decan-4-amine] |  | 30 |  |
| Nc1nc(N2CCC3(CC2)C(=O)N2CCCC2C3N)cnc1Sc1ccnc(N)c1Cl (centres unmarked) [Example 75, 1′-amino-1-(6-amino-5-((2-amino-3-chloropyridin-4-yl)thio)pyrazin-2-yl)tetrahydrospiro[piperidine-4,2′-pyrrolizin]-3′(1′H)-one] |  | 35 |  |
| CC(=O)N1CC(F)(F)c2c(Sc3ncc(N4CCC(C)(CNC(=O)OC(C)(C)C)CC4)nc3N)cccc21 [Example 13, tert-butyl ((1-(5-((1-acetyl-3,3-difluoroindolin-4-yl)thio)-6-aminopyrazin-2-yl)-4-methylpiperidin-4-yl)methyl)carbamate] |  |  | 20.6 |
| Nc1nc(N2CCC3(CC2)COC[C@H]3N)cnc1Sc1cccc2c1C(F)(F)C(=O)N2 [Example 8, (S)-4-((3-amino-5-(4-amino-2-oxa-8-azaspiro[4.5]decan-8-yl)pyrazin-2-yl)thio)-3,3-difluoroindolin-2-one] | 21.4 | 76 | 26.4 |
| CN(C)C(=O)C(=O)c1ccc(C(=O)Nc2nccc(Sc3ncc(N4CCC(C)(N)CC4)nc3N)c2Cl)cc1 [Example 34, N-(4-((3-amino-5-(4-amino-4-methylpiperidin-1-yl)pyrazin-2-yl)thio)-3-chloropyridin-2-yl)-4-(2-(dimethylamino)-2-oxoacetyl)benzamide] |  | 37 |  |
| CC(=O)N1CCc2c(Sc3ncc(N4CCC5(CC4)COC[C@H]5N)nc3N)cccc21 [Example 72, (S)-1-(4-((3-amino-5-(4-amino-2-oxa-8-azaspiro[4.5]decan-8-yl)pyrazin-2-yl)thio)indolin-1-yl)ethanone] |  | 31 |  |
| Nc1nc(N2CCC3(CC2)COC[C@H]3N)cnc1Sc1cccc2[nH]cc(F)c12 [Example 40, (S)-8-(6-amino-5-((3-fluoro-1H-indol-4-yl)thio)pyrazin-2-yl)-2-oxa-8-azaspiro[4.5]decan-4-amine] | 40.6 | 71 |  |
| CN(C)C(=O)C(=O)c1ccc(C(=O)Nc2nccc(Sc3ncc(N4CCC(C)(CN)CC4)nc3N)c2Cl)cc1 [Example 35, N-(4-((3-amino-5-(4-(aminomethyl)-4-methylpiperidin-1-yl)pyrazin-2-yl)thio)-3-chloropyridin-2-yl)-4-(2-(dimethylamino)-2-oxoacetyl)benzamide] |  | 30 |  |
| Cc1ccc(C(=O)C(=O)Nc2cccc(Sc3ncc(N4CCC(C)(N)CC4)nc3N)c2Cl)cc1 [Example 31, N-(3-((3-amino-5-(4-amino-4-methylpiperidin-1-yl)pyrazin-2-yl)thio)-2-chlorophenyl)-2-oxo-2-(p-tolyl)acetamide] |  | 53 |  |
| CN(C)C(=O)C(=O)Nc1cccc(Sc2ncc(N3CCC(C)(N)CC3)nc2N)c1Cl [Example 29, N^1-(3-((3-amino-5-(4-amino-4-methylpiperidin-1-yl)pyrazin-2-yl)thio)-2-chlorophenyl)-N^2,N^2-dimethyloxalamide] |  | 47 |  |
| C=CC(=O)Nc1cccc(Sc2ncc(N3CCC(C)(NC(=O)OC(C)(C)C)CC3)nc2N)c1Cl [Example 32, tert-butyl (1-(5-((3-acrylamido-2-chlorophenyl)thio)-6-aminopyrazin-2-yl)-4-methylpiperidin-4-yl)carbamate] |  | 49 |  |
| Nc1nc(N2CCC3(CC2)COC[C@H]3N)cnc1Sc1cccc2[nH]ccc12 [Example 42, (S)-8-(5-((1H-indol-4-yl)thio)-6-aminopyrazin-2-yl)-2-oxa-8-azaspiro[4.5]decan-4-amine] |  | 58 |  |
| Nc1nc(N2CCC3(CC2)CC2CC2C3N)cnc1Sc1ccnc(N)c1Cl (centres unmarked) [Example 74, 1′-(6-amino-5-((2-amino-3-chloropyridin-4-yl)thio)pyrazin-2-yl)spiro[bicyclo[3.1.0]hexane-3,4′-piperidin]-2-amine] | 8.3 | 75 | 3.38 |
